Test results taken from patent US20180244629A1, “Compounds And Compositions For The Treatment Of Cancer” (The Broad Institute, Inc., priority 2013, published 2018).
Where two headings read alike, the source gives them in different places.

How the values were obtained:
A549 cells = experiment: A549 Cytotoxicity Assay (Cell Titer Glo viability); assay type: cell-based
Experimental: A549 Cytotoxicity Assay Protocol. Day 0: A549 cells (ATCC, A549 CCL-185) are grown to 95% confluence in RPMI, 10% FBS/Pen/Strep/L-Glutamine. Day 1: Plate cells (1000 per well) in 40 μl culturing media using Corning 384-well plates (3570), incubate in standard TC conditions (5% CO2, 95% humidity, 37° C.) for 24 h. Day 2: Dilute each concentration of a half-log serial dilution of compound (1 mM-100 nM) 1:200 in culturing media and add […] (50 μl total volume) of that dilution to designated wells (8 replicates per concentration). The final dilution will be 1000×([…]). Day 4: Remove plate from incubator to cool for 20 minutes to room temperature. Add 40 μl of a 25% Promega Cell Titer Glo solution (diluted 1:3 with room temperature PBS) with Thermo combi or multichannel and incubate for 10 min. Read on Perkin-Elmer EnVision with US LUM settings for 0.1 second per well.
A549 Assay Protocol. Day 0: A549 cells (ATCC) are grown in a Triple flask (NUNC) to ˜95% confluence (TrypLE Phenol Red free) and resuspended for dispensing at 25,000 cells/mL of DMEM, 10% FBS/Pen/Strep/L-Glutamine (using the TAP Compact SelecT automated cell culture system). Day 1: Plate cells at 1000 per well in 40 uL media (DMEM/10% FBS/Pen/Strep/L-Glutamine) using Corning 8867BC 384 well plates; incubate in standard TC conditions (5% CO2; 95% humidity, 37° C.) for 24 hours (Compact SelecT). Day 2: Add 100 nL compound per well at dose into 40 uL assay volume using a pin tool (CyBi Well). Pin 100 nL cytotoxic compounds, mitoxantrone (CID 4212) to positive control wells to a final concentration of 10 μM (100 nL 4 mM DMSO stock). Incubate for […] at 37° C. in Liconic incubator, 95% humidity 5% CO2. Day 4: Remove plate from incubator, cool for 15 minutes to room temperature; add 20 μL 50% Promega CellTiterGlo (diluted 1:1 with PBS, pH 7.4) with Thermo Combi. Incubate at room temperature for 5 minutes. Read plates on Perkin-Elmer EnVision with standard luminescence settings for 0.1 sec per well.
(§1) Compounds as shown were tested against various cells lines in vitro according to the methods described herein. Cells are plated in 384-well format in a total volume of 40 μl. Indicated compound concentrations were added 24 hrs after plating the cells. After 48 hrs cell viability was determined using Cell Titer Glo® Luminescent Cell Viability Assay.
as §1, with “Known PDE3 inhibitors” for “Compounds”, “shown below” for “shown”

HeLa cells = experiment: HeLa Cytotoxicity Assay (Cell Titer Glo viability); assay type: cell-based
Experimental: HeLa Cytotoxicity Assay Protocol: Day 0: HeLa cells (ATCC, HeLa CCL-2) are grown to 95% confluence in DMEM, 10% FBS/Pen/Strep/L-Glutamine. Day 1: Plate cells (1000 per well) in 40 μl culturing media using Corning 384-well plates (3570), incubate in standard TC conditions (5% CO2, 95% humidity, 37 degrees C.) for 24 hours. Day 2: Dilute each concentration of a half-log serial dilution of compound (1 mM-100 nM) 1:200 in culturing media and add 10 μl (50 μl total volume) of that dilution to designated wells (8 replicates per concentration). The final dilution will be 1000×(1 μM-100 pM). Day 4: Remove plate from incubator to cool for 20 minutes to room temperature. Add 40 μl of a 25% Promega Cell Titer Glo solution (diluted 1:3 with room temperature PBS) with Thermo combi or multichannel and incubate for 10 minutes. Read on Perkin-Elmer EnVision with US LUM settings for 0.1 second per well.
as §1
as §1, with “Known PDE3 inhibitors” for “Compounds”, “shown below” for “shown”

[1] = Homo sapiens, A549, Mean ± SD (n = 3), read-out: Potency (EC50 nM) A549
[2] = Homo sapiens, HeLa, Mean ± SD (n = 3), read-out: Potency (EC50 nM) HeLa
[3] = Homo sapiens, HeLa, n = 2, read-out: Potency (EC50) HeLa
[4] = Homo sapiens, A549, n = 2, read-out: Potency (EC50) A549

SMILES | EC50 (A549 cells; [1]) | EC50 (HeLa cells; [2]) | also measured
CCN(CC)c1ccc(C2=NNC(=O)CC2C)cc1[N+](=O)[O-] (stereo not drawn) [drawing 154] | > 10000 nM | – | –
CC1CC(=O)NN=C1c1ccc(F)c(F)c1 (stereo not drawn) | > 10000 nM | 64 ± 3 nM | –
C[C@H]1CC(=O)NN=C1c1ccc(N2CCOCC2)c(F)c1 | > 10000 nM | > 1000 nM | –
C[C@@H]1CC(=O)NN=C1c1ccc(Cl)cc1 | > 10000 nM | 33 ± 5 nM | –
CC(=O)Nc1ccc(C2=NNC(=O)C[C@H]2C)cc1F | > 10000 nM | > 1000 nM | –
CC(=O)Nc1ccc(C2=NNC(=O)C[C@H]2C)cc1 [drawing 174] | > 10000 nM | > 1000 nM | –
C[C@@H]1CC(=O)NN=C1c1ccc(-c2cncnc2)cc1 [drawing 197] | > 10000 nM | 13 ± 2 nM | –
CC(=O)Nc1ccc(C2=NNC(=O)CC2C)cc1 (stereo not drawn) [drawing 139] | – | – | EC50 (HeLa cells; 48 hrs, Cell Titer Glo, read-out: EC50 HeLa): > 10000 nM; EC50 (A549 cells; 48 hrs, Cell Titer Glo, read-out: EC50 A549): > 10000 nM
CC1CC(=O)NN=C1c1ccc(N2CCN(C(=O)Cc3ccc(Cl)cc3Cl)CC2)cc1 (stereo not drawn) | – | – | EC50 (HeLa cells; [3]): > 10000 nM; EC50 (A549 cells; [4]): > 10000 nM
CCN(CC)c1ccc(C2=NNC(=O)C[C@H]2C)cc1[N+](=O)[O-] [drawing 155] | > 10000 nM | 3.8 ± 1.1 nM | –
CC(=O)Nc1ccc(C2=NNC(=O)C[C@H]2C)cc1Cl | > 10000 nM | 30 nM | –
CC1CC(=O)NN=C1c1cccs1 (stereo not drawn) | – | – | EC50 (HeLa cells; [3]): > 10000 nM; EC50 (A549 cells; [4]): > 10000 nM
CC(=O)Nc1ccc(C2=NNC(=O)C[C@H]2C)cc1N | > 10000 nM | > 1000 nM | –
C[C@@H]1CC(=O)NN=C1c1ccc(-n2cnnc2)cc1 | > 10000 nM | > 1000 nM | –
CC1CC(=O)N(c2ccccc2)N=C1c1ccc(Cl)cc1 (stereo not drawn) | – | – | EC50 (HeLa cells; [3]): > 10000 nM; EC50 (A549 cells; [4]): > 10000 nM
CCN(CC)c1ccc(-c2n[nH]c(=O)cc2C)cc1 [drawing 150] | – | – | EC50 (HeLa cells; Homo sapiens, HeLa, 48 h, Cell Titer Glo, read-out: EC50 HeLa): > 1000 nM; EC50 (A549 cells; Homo sapiens, A549, 48 hrs, Cell Titer Glo, read-out: EC50 A549): > 10000 nM

SMILES | EC50 (A549 cells; [1]) | EC50 (HeLa cells; [2]) | also measured
Cc1ccc(CCC(=O)N2CCN(c3ccc(C4=NNC(=O)CC4C)cc3)CC2)cc1 (stereo not drawn) | – | – | EC50 (HeLa cells; [3]): > 10000 nM; EC50 (A549 cells; [4]): > 10000 nM
Cc1nc2ccc(C3=NNC(=O)C[C@H]3C)cc2[nH]1 | > 10000 nM | > 1000 nM | –
C/C=C/c1ccc(C2=NNC(=O)C[C@H]2C)cc1 | > 10000 nM | 8.8 ± 1.1 nM | –
O=C1CC2CCc3cc(N4CCOCC4)ccc3C2=NN1 (stereo not drawn) | > 10000 nM | > 1000 nM | –
Cc1cc(=O)[nH]nc1-c1ccc(N)cc1 [drawing 199] | > 10000 nM | > 1000 nM | –
C[C@@H]1CC(=O)NN=C1c1ccc(N2CCOCC2)cc1 [drawing 164] | > 10000 nM | 13 ± 2 nM | –
C[C@@H]1CC(=O)NN=C1c1ccc(N2CCOCC2)c(F)c1 [drawing 166] | > 10000 nM | 1.6 ± 0.2 nM | –
CCN(CC)c1ccc(C(=O)Nc2ccccc2)cc1[N+](=O)[O-] | – | – | EC50 (HeLa cells; [3]): > 10000 nM; EC50 (A549 cells; [4]): > 10000 nM
CCN(CC)c1ccc(C2=NNC(=O)C2(C)C)cc1 | > 10000 nM | > 1000 nM | –
C[C@H]1CC(=O)NN=C1c1ccc(F)c(F)c1 | > 10000 nM | > 1000 nM | –
C[C@@H]1CC(=O)NN=C1c1ccc(N2CCN(C)CC2)cc1 | > 10000 nM | 310 ± 120 nM | –
C[C@@H]1CC(=O)NN=C1c1ccc(N2CCCCS2(=O)=O)cc1 | > 10000 nM | 330 ± 6 nM | –
CC(=O)N1CCN(c2ccc(C3=NNC(=O)C[C@H]3C)cc2F)CC1 | > 10000 nM | > 1000 nM | –
CC1CC(=O)NN=C1c1ccc(N2CCOCC2)c(F)c1 (stereo not drawn) | > 10000 nM | 2.8 ± 0.7 nM | –
CC(=O)Nc1ccc(C2=NNC(=O)C[C@H]2C)cc1C(C)=O | > 10000 nM | 130 ± 10 nM | –
O=C1CC(c2ccccc2)=NN1 | – | – | EC50 (HeLa cells; [3]): > 10000 nM; EC50 (A549 cells; [4]): > 10000 nM
